The numbers were not newly measured in publication PMC5601361, “Targeting the Receptor for Advanced Glycation Endproducts (RAGE): A Medicinal Chemistry Perspective” (Journal of Medicinal Chemistry, 2017), which cites them from elsewhere.

“Also recorded” adds a separate entry of the source. Where two headings read alike, the source gives them in different places.

The test system of data set [1] is RAGE-overexpressing brain endothelial cells monolayer. The arrangement: method as in PMID 23140885. To be noted: artificial BBB system.
In data set [2] the test system is human RAGE-Aβ. The arrangement: method as in PMID 23140885.
The test system of data set [3] is CHO cells. Set-up: method as in PMID 23140885. As to conditions: in vitro.
Data set [4] addresses human sRAGE. As to conditions: VC1 domain; ITC; read-out: affinity for RAGE (Kd).
Data set [5] deals with human sRAGE. To be noted: SPR. A general note: Surface plasmon resonance follows binding to a sensor surface in real time, without labels.
Data set [6] has as its target human sRAGE. The arrangement: method as in PMID 17660747. As to conditions: V domain, SPR.
The target of data set [7] is human sRAGE. The arrangement: method as in PMID 17508727. As to conditions: SPR.
Data set [8] has as its system HT22 cells. As to conditions: 10 μM.
Data set [9] has as its system human RAGE-Aβ1–42 interaction. Set-up: method as in PMID 26051601. To be noted: in vitro.
Data set [10] deals with APPswe/PS1 mice. To be noted: po 50 mg/kg every 2 days for 4 weeks; 50 mg/kg.
Data set [11] addresses human RAGE. The arrangement: method as in PMID 25084534. To be noted: V domain; Ca2+-bound S100P homodimer; read-out: affinity for RAGE (Kd).

With `CCCCc1sc(-c2ccc(OCCN3CCN(C)CC3)cc2)nc1-c1ccc(Oc2ccc(Cl)cc2)cc1` [Compound 2], in data set [1], the “Aβ1–42 influx / Aβ transport” value is given as “Aβ transport inhibition; also recorded: • inhibition of Aβ1–42 influx in the brain”. In data set [2], the RAGE-Aβ binding result was “• RAGE-Aβ binding inhibition”. In addition, the IC50 (usually the concentration at which inhibition is half-maximal) in data set [2] (ELISA on human RAGE-Aβ (RAGE-Aβ1–42 interaction)) was 1210 nM. Besides, the “Aβ1–42-associated NF-κB activation” value in [3] was “• inhibition of Aβ1–42-associated NF-κB activation (in vitro)”.
Take “S100B: Ca2+-binding S100/calgranulin family protein, endogenous RAGE ligand [Compound S100B]”: the Kd in [4] was 3200 to 9400 nM; in [5] (V domain, read-out: Kd1), 500 nM; in data set [5] (V domain, read-out: Kd2) it was 600 nM; in data set [5] (VC1 domain, read-out: Kd1), 11 nM; in data set [5] (VC1 domain, read-out: Kd2), 200 nM; in [6] (S100B dimer, read-out: Kd) it was 8300 nM. Moreover, the Kd in [6] (S100B tetramer, read-out: Kd1) was 1100 nM; in [6] (S100B tetramer, read-out: Kd2) it was 42 nM; in [7] (V domain, read-out: Kd1), 550 nM; in [7] (V domain, read-out: Kd2) it was 470 nM; in [7] (VC1 domain, read-out: Kd1) it was 11 nM; in data set [7] (VC1 domain, read-out: Kd2), 244 nM.
Regarding `CC(C)(C)OC(=O)N1CCN(CCCOc2ccc(-c3nc4ccc(Oc5ccc(Cl)cc5)cc4o3)cc2)CC1` [Compound 8], the “toxicity in HT22 cells” value in [8] is “not toxic”. Moreover, the “RAGE-Aβ1–42 binding” value in data set [9] was “• RAGE-Aβ1–42 binding inhibition (in vitro)”. In addition, the “amyloid deposition / Aβ and amyloid plaque levels in the brain” value in data set [10] is “did not significantly affect”.

B1: S100P: S100 family protein binding the RAGE V domain (protein, UniProt P25815 1-95, looked up)
Protein S100-P: MTELETAMGMIIDVFSRYSGSEGSTQTLTKGELKVLMEKELPGFLQSGKDKDAVDKLLKDLDANGDAQVDFSEFIVFVAAITSACHKYFEKAGLK
In the case of B1, the Kd in [11] was 6000 nM.
